Where a name gives a salt, the structure may show the parent alone.
Target: T1, GSK3β (Homo sapiens, UniProt P49841)
T1 construct: purchased Dundee University, UK
Assay: GSK3β Scintillation Proximity Assay (ATP competition)
Assay type: biochemical
Conditions: recombinant human GSK3β, SPA, 1 μM ATP, Km of ATP 20 μM used to calculate Ki
Procedure: Determination of ATP Competition in Scintillation Proximity GSK3β Assay.
GSK3β Scintillation Proximity Assay.
The competition experiments were carried out in duplicate with 10 different concentrations of the inhibitors in clear-bottom microtiter plates (Wallac, Finland). A biotinylated peptide substrate, Biotin-Ala-Ala-Glu-Glu-Leu-Asp-Ser-Arg-Ala-Gly-Ser(PO3H2)-Pro-Gln-Leu (AstraZeneca, Lund), was added at a final concentration of 1 μM in an assay buffer containing 1 mU recombinant human GSK30 (Dundee University, UK), 12 mM morpholinepropanesulfonic acid (MOPS), pH 7.0, 0.3 mM EDTA, 0.01% β-mercaptoethanol, 0.004% Brij 35 (a […] detergent), 0.5% glycerol and 0.5 μg BSA/25 μl. The reaction was initiated by the addition of 0.04 μCi [γ-^33P]ATP (Amersham, UK) and unlabelled ATP at a final concentration of 1 μM and assay volume of 25 μl. After incubation for 20 minutes at room temperature, each reaction was terminated by the addition of 25 μl stop solution containing 5 mM EDTA, 50 μM ATP, 0.1% Triton X-100 and 0.25 mg streptavidin coated Scintillation Proximity Assay (SPA) beads (Amersham, UK). After 6 hours the radioactivity was determined in a liquid scintillation counter (1450 MicroBeta Trilux, Wallac). The inhibition curves were analysed by non-linear regression using GraphPad Prism, USA. The Km value of ATP for GSK3, used to calculate the inhibition constants (Ki) of the various compounds, was 20 μM.

T1 sequence (P49841 whole entry): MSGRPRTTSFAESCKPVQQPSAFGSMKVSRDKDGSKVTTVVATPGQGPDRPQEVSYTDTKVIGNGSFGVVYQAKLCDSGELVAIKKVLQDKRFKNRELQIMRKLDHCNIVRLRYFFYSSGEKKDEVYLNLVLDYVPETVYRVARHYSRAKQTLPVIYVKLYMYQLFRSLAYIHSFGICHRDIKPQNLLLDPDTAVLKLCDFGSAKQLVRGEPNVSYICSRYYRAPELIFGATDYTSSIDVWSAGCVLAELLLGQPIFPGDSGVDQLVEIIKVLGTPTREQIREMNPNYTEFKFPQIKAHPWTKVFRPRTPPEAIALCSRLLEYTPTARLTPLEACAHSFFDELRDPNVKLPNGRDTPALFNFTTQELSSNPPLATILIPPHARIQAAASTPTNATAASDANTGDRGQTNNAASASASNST

## COCCCNC(=O)c1ccnc2[nH]c(-c3ccc(C(=O)N4CCN(C)CC4)cc3)nc12 [Example 6, N-(3-Methoxypropyl)-2-{4-[(4-methylpiperazin-1-yl)carbonyl]phenyl}-3H-imidazo[4,5-b]pyridine-7-carboxamide hydrochloride]
  Ki: 51 nM

## COCCCNC(=O)c1ccnc2[nH]c(-c3ccc(C(=O)N4CCOCC4)cc3)nc12 [Example 7, N-(3-Methoxypropyl)-2-[4-(morpholin-4-ylcarbonyl)phenyl]-3H-imidazo[4,5-b]pyridine-7-carboxamide hydrochloride]
  Ki: 36 nM

## COCCCNC(=O)c1ccnc2[nH]c(-c3ccc(C(F)(F)F)cc3)nc12 [Example 3, N-(3-Methoxypropyl)-2-[4-(trifluoromethyl)phenyl]-3H-imidazo[4,5-b]pyridine-7-carboxamide hydrochloride]
  Ki: 17 nM

## COCCCNC(=O)c1ccnc2[nH]c(-c3cccc(COCC(F)(F)C(F)F)c3)nc12 [Example 4, N-(3-Methoxypropyl)-2-{3-[(2,2,3,3-tetrafluoropropoxy)methyl]phenyl}-3H-imidazo[4,5-b]pyridine-7-carboxamide hydrochloride]
  Ki: 8 nM

— patent US20080255106A1, “Novel 2-Phenyl-Imidazo[4,5-B]Pyridine Derivatives as Inhibitors of Glycogen Synthase Kinase for the Treatment of Dementia and Neurodegenerative Disorders” (AstraZeneca AB, priority 2005, published 2008)
